According to patent publication US5834461A, “Tricyclic benzazepine vasopressin antagonists” (American Cyanamid Company, priority 1997, dated 1998):
Blank lines part the entries; values can stand above or below the molecule they belong to.

Experiments:
[1] = target: T1, rat kidney medullary V2 receptors (Rattus norvegicus, UniProt Q00788); experiment: Binding Assay to Rat Kidney Medullary V2 Receptors; conditions: for IC50: rat kidney medullary V2; for inhibition at 10 µM: rat kidney, read-out: V2, % at concentration in brackets
T1 construct: Medullary tissues from rat kidneys are dissected out; from tissue; host or cells: rat kidney medulla membranes
T1 sequence (Q00788 whole entry): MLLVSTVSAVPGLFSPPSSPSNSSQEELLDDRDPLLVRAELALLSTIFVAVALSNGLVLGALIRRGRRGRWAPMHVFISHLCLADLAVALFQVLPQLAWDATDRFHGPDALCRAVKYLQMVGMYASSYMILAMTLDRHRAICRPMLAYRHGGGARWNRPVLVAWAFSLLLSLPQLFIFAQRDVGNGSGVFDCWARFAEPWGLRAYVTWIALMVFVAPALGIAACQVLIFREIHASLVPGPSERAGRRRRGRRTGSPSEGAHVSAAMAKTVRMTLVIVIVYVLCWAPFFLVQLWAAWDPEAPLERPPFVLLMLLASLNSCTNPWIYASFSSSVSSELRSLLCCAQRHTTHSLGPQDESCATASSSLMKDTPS
Summary of the method: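 Competition binding: [3H]AVP at 0.8 nM, test compounds from 50% DMSO, and membranes from rat kidney medulla, left 120 min on the bench. Filtration then liquid scintillation counting measured bound ligand; 1.0 μM unlabeled ligand set non-specific binding.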

[2] = test system: vasopressin V1; experiment: Vasopressin V1 Antagonist Activity in Conscious Rats (vasopressin vasopressor response); format: in vivo, rat (spontaneously hypertensive rats); design: Average Change: unit not given here
Summary of the method: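 Conscious rats had the ventral caudal tail artery cannulated into the lower abdominal aorta under local procaine anesthesia, plus a caudal vein cannula for intravenous dosing. Pulsatile blood pressure was recorded via a Statham P23Db transducer. Vasopressor responses to vasopressin injections were measured before and after compound dosing, with percent antagonism calculated relative to the pre-drug response taken as 100%.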

[3] = test system: vasopressin V2; experiment: Vasopressin V2 Antagonist Activity in Conscious Hydrated Rats (diuretic effect); format: in vivo, normal Sprague-Dawley rats; conditions: AVP 0.4 μg/kg i.p.
Summary of the method: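 Conscious rats were dosed orally at 0.1–100 mg/kg, and AVP 0.4 μg/kg i.p. in peanut oil followed 1 h later. Urine volume, osmolality and Na/K/Cl were compared against AVP-treated controls, with non-AVP rats as water-loading controls.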

[4] = 10 mg/kg i.v., VAS 0.01 i.u./kg, 30 min
[5] = 10 mg/kg i.v., VAS 0.05 i.u./kg, 30 min
[6] = 10 mg/kg i.v., VAS 0.1 i.u./kg, 30 min
[7] = 20 mg/kg i.v., VAS 0.01 i.u./kg, 60 min
[8] = 20 mg/kg i.v., VAS 0.01 i.u./kg, 300 min
[9] = 20 mg/kg i.v., VAS 0.05 i.u./kg, 60 min
[10] = 20 mg/kg i.v., VAS 0.05 i.u./kg, 90 min
[11] = 20 mg/kg i.v., VAS 0.05 i.u./kg, 120 min
[12] = 20 mg/kg i.v., VAS 0.05 i.u./kg, 180 min
[13] = 20 mg/kg i.v., VAS 0.05 i.u./kg, 240 min
[14] = 20 mg/kg i.v., VAS 0.05 i.u./kg, 300 min
[15] = 20 mg/kg i.v., VAS 0.1 i.u./kg, 60 min
[16] = 20 mg/kg i.v., VAS 0.1 i.u./kg, 90 min
[17] = 20 mg/kg i.v., VAS 0.1 i.u./kg, 120 min
[18] = 20 mg/kg i.v., VAS 0.1 i.u./kg, 180 min
[19] = 20 mg/kg i.v., VAS 0.1 i.u./kg, 240 min
[20] = 20 mg/kg i.v., VAS 0.1 i.u./kg, 300 min
[21] = 50 mg/kg p.o., VAS 0.01 i.u./kg, 30 min
[22] = 50 mg/kg p.o., VAS 0.01 i.u./kg, 60 min
[23] = 50 mg/kg p.o., VAS 0.01 i.u./kg, 90 min
[24] = 50 mg/kg p.o., VAS 0.01 i.u./kg, 120 min
[25] = 50 mg/kg p.o., VAS 0.01 i.u./kg, 180 min
[26] = 50 mg/kg p.o., VAS 0.01 i.u./kg, 240 min
[27] = 50 mg/kg p.o., VAS 0.02 i.u./kg, 30 min
[28] = 50 mg/kg p.o., VAS 0.02 i.u./kg, 60 min
[29] = 50 mg/kg p.o., VAS 0.02 i.u./kg, 90 min
[30] = 50 mg/kg p.o., VAS 0.02 i.u./kg, 120 min
[31] = 50 mg/kg p.o., VAS 0.02 i.u./kg, 180 min
[32] = 50 mg/kg p.o., VAS 0.02 i.u./kg, 240 min

IC50 [1]: 68 nM
Compound: Cc1ccccc1C(=O)Nc1ccc(C(=O)N2Cc3ccccc3Cc3ccccc32)cc1 [Example 2, N-[4-[(6,11-Dihydro-5H-dibenz[b,e]azepin-5-yl)carbonyl]phenyl]-2-methylbenzamide]
MAX % Inhibition ([2]; 10 mg/kg p.o.): 65%
Time of max % inhibition ([2]; 10 mg/kg p.o.): 180 min
Osmolality ([3]; 3 mg/kg orally): 1235 ± 162 mOsm/kg
Urine Volume ([3]; 3 mg/kg orally): 2.9 ± 0.5 ml/4 hrs.
Osmolality ([3]; 10 mg/kg orally): 408 ± 34 mOsm/kg
Urine Volume ([3]; 10 mg/kg orally): 15.2 ± 2.4 ml/4 hrs.
Osmolality ([3]; 30 mg/kg orally): 401 ± 49 mOsm/kg
Urine Volume ([3]; 30 mg/kg orally): 18.9 ± 1.7 ml/4 hrs.

IC50 [1]: 29 nM
Compound: Cc1ccccc1C(=O)Nc1ccc(C(=O)N2Cc3ccccc3-c3ccccc32)cc1 [Example 5, 2-Methyl-N-[4-[(5(6H)-phenanthridinyl)carbonyl]phenyl]benzamide]
Average Change [2, 4]: 35
Inhibition [2, 4]: 22%
Average Change [2, 5]: 30
Inhibition [2, 5]: -9%
Average Change [2, 6]: 35
Inhibition [2, 6]: 22%
Average Change [2, 7]: 17.5
Inhibition [2, 7]: 61%
Average Change [2, 8]: 30
Inhibition [2, 8]: 33%
Average Change [2, 9]: 10
Inhibition [2, 9]: 64%
Average Change [2, 10]: 10
Inhibition [2, 10]: 64%
Average Change [2, 11]: 15
Inhibition [2, 11]: 45%
Average Change [2, 12]: 12.5
Inhibition [2, 12]: 55%
Average Change [2, 13]: 17.5
Inhibition [2, 13]: 36%
Average Change [2, 14]: 22.5
Inhibition [2, 14]: 18%
Average Change [2, 15]: 17.5
Inhibition [2, 15]: 61%
Average Change [2, 16]: 20
Inhibition [2, 16]: 56%
Average Change [2, 17]: 17.5
Inhibition [2, 17]: 61%
Average Change [2, 18]: 20
Inhibition [2, 18]: 56%
Average Change [2, 19]: 25
Inhibition [2, 19]: 44%
Average Change [2, 20]: 30
Inhibition [2, 20]: 33%
Average Change [2, 21]: 22.5
Inhibition [2, 21]: 10%
Average Change [2, 22]: 30
Inhibition [2, 22]: -20%
Average Change [2, 23]: 17.5
Inhibition [2, 23]: 30%
Average Change [2, 24]: 30
Inhibition [2, 24]: -20%
Average Change [2, 25]: 20
Inhibition [2, 25]: 20%
Average Change [2, 26]: 22.5
Inhibition [2, 26]: 10%
Average Change [2, 27]: 35
Inhibition [2, 27]: 0%
Average Change [2, 28]: 35.5
Inhibition [2, 28]: 7%
Average Change [2, 29]: 32.5
Inhibition [2, 29]: 7%
Average Change [2, 30]: 40
Inhibition [2, 30]: -14%
Average Change [2, 31]: 37.5
Inhibition [2, 31]: -7%
Average Change [2, 32]: 38.5
Inhibition [2, 32]: -10%
Osmolality ([3]; 10 mg/kg orally): 1137 mOsm/kg
Urine Volume ([3]; 10 mg/kg orally): 2 ml/4 hrs.

IC50 [1]: 140 nM
Compound: O=C(Nc1ccc(C(=O)N2Cc3ccccc3Cc3ccccc32)cc1)c1cc(Cl)cc(Cl)c1 [Example 251, N-(4-[(6,11-Dihydro-5H-dibenz[b,e]azepin-5-yl)-carbonyl]phenyl]-3,5-dichlorobenzamide]
MAX % Inhibition ([2]; 30 mg/kg i.v.): 41%
Time of max % inhibition ([2]; 30 mg/kg i.v.): 60 min
Osmolality ([3]; 10 mg/kg orally): 835 mOsm/kg
Urine Volume ([3]; 10 mg/kg orally): 7.5 ml/4 hrs.

IC50 [1]: 190 nM
Compound: O=C(Nc1ccc(C(=O)N2Cc3ccccc3Cc3ccccc32)cc1)c1cccc(Cl)c1Cl [Example 253, N-[4-[(6,11-Dihydro-5H-dibenz[b,e]azepin-5-yl)-carbonyl]phenyl]-2,3-dichlorobenzamide]
MAX % Inhibition ([2]; 30 mg/kg i.v.): 57%
Time of max % inhibition ([2]; 30 mg/kg i.v.): 180 min
Osmolality ([3]; 10 mg/kg orally): 837 mOsm/kg
Urine Volume ([3]; 10 mg/kg orally): 6 ml/4 hrs.

IC50 [1]: 39 nM
Compound: O=C(Nc1ccc(C(=O)N2Cc3ccccc3Cc3ccccc32)cc1)C1CC=CCC1 (centres unmarked) [Example 255, N-[4-[(6,11-Dihydro-5H-dibenz[b,e]azepin-5-yl)-carbonyl]phenyl]-3-cyclohexene-1-carboxamide]
MAX % Inhibition ([2]; 10 mg/kg i.v.): 65%
Time of max % inhibition ([2]; 10 mg/kg i.v.): 60 min
Osmolality ([3]; 30 mg/kg orally): 1456 mOsm/kg
Urine Volume ([3]; 30 mg/kg orally): 2.3 ml/4 hrs.

Compound: COc1cc(C(=O)N2Cc3ccccc3Cc3ccccc32)ccc1NC(=O)c1ccccc1C [Example 257, N-[4-[(6,11-Dihydro-5H-dibenz[b,e]azepin-5-yl)-carbonyl]-2-methoxyphenyl]-2-methylbenzamide]
MAX % Inhibition ([2]; 10 mg/kg i.v.): 71%
Time of max % inhibition ([2]; 10 mg/kg i.v.): 60 min
Osmolality ([3]; 10 mg/kg orally): 434 mOsm/kg
Urine Volume ([3]; 10 mg/kg orally): 11.8 ml/4 hrs.

inhibition at 10 µM [1]: 87%
Compound: Cc1ccccc1C(=O)Nc1c(C)cc(C(=O)N2Cc3ccccc3Cc3ccccc32)cc1C [Example 258, N-[4-[(6,11-Dihydro-5H-dibenz[b,e]azepin-5-yl)-carbonyl]-2,6-dimethylphenyl]-2-methylbenzamide]
MAX % Inhibition ([2]; 30 mg/kg i.v.): 61%
Time of max % inhibition ([2]; 30 mg/kg i.v.): 60 min

inhibition at 10 µM [1]: 13%
Compound: Cc1cc(C(=O)N2Cc3ccccc3Cc3ccccc32)cc(C)c1NC(=O)c1ccc(Cl)cc1Cl [Example 259, N-[4-[(6,11-Dihydro-5H-dibenz[b,e]azepin-5-yl)-carbonyl]-2,6-dimethylphenyl]-2 4-dichlorobenzamide]
MAX % Inhibition ([2]; 30 mg/kg i.v.): 29%
Time of max % inhibition ([2]; 30 mg/kg i.v.): 90 min
Osmolality ([3]; 10 mg/kg orally): 1080 mOsm/kg
Urine Volume ([3]; 10 mg/kg orally): 6 ml/4 hrs.

Compound: COc1cc(C(=O)N2Cc3ccccc3Cc3ccccc32)ccc1NC(=O)c1cc(F)ccc1C [Example 261, N-[4-[(6,11-Dihydro-5H-dibenz[b,e]azepin-5-yl)-carbonyl]-2-methoxyphenyl]-2-methyl-5-fluorobenzamide]
MAX % Inhibition ([2]; 10 mg/kg i.v.): 74%
Time of max % inhibition ([2]; 10 mg/kg i.v.): 60 min
Osmolality ([3]; 10 mg/kg orally): 1337 mOsm/kg
Urine Volume ([3]; 10 mg/kg orally): 3.8 ml/4 hrs.

Compound: Cc1c(F)cccc1C(=O)Nc1ccc(C(=O)N2Cc3ccccc3Cc3ccccc32)cc1Cl [Example 262, N-[4-[(6,11-Dihydro-5H-dibenz[b,e]azepin-5-yl)-carbonyl]-2-chlorophenyl]-2-methyl-3-fluorobenzamide]
Osmolality ([3]; 10 mg/kg orally): 899 mOsm/kg
Urine Volume ([3]; 10 mg/kg orally): 6.8 ml/4 hrs.

Compound: COc1cc(C(=O)N2Cc3ccccc3Cc3ccccc32)ccc1NC(=O)c1ccc(Cl)cc1Cl [Example 263, N-[4-[(6,11-Dihydro-5H-dibenz[b,e]azepin-5-yl)-carbonyl]-2-methoxyphenyl]-2,4-dichlorobenzamide]
MAX % Inhibition ([2]; 10 mg/kg i.v.): 55%
Time of max % inhibition ([2]; 10 mg/kg i.v.): 90 min

inhibition at 10 µM [1]: 26%
Compound: CC(C)COc1ccc([N+](=O)[O-])cc1C(=O)Nc1ccc(C(=O)N2Cc3ccccc3Cc3ccccc32)cc1 [Example 453]
Osmolality ([3]; 10 mg/kg orally): 776 mOsm/kg
Urine Volume ([3]; 10 mg/kg orally): 9.4 ml/4 hrs.

Compound: Cc1nc2c(s1)CCN(C(=O)c1ccc(NC(=O)c3ccc(Cl)cc3Cl)cc1)c1ccccc1-2 [Example 455, N-[4-(4,5-Dihydro-2-methyl-6H-thiazolo[5,4-d][1]-benzazepin-6-yl)carbonyl1phenyl]-2,4-dichlorobenzamide]
MAX % Inhibition ([2]; 30 mg/kg i.v.): 46%
Time of max % inhibition ([2]; 30 mg/kg i.v.): 120 min
Osmolality ([3]; 10 mg/kg orally): 420 mOsm/kg
Urine Volume ([3]; 10 mg/kg orally): 13.5 ml/4 hrs.

Compound: Cc1nc2c(s1)CCN(C(=O)c1ccc(NC(=O)c3cc(F)ccc3C)cc1)c1ccccc1-2 [Example 534]
Osmolality ([3]; 10 mg/kg orally): 695 mOsm/kg
Urine Volume ([3]; 10 mg/kg orally): 10.6 ml/4 hrs.

IC50 [1]: 11.3 nM
Compound: Cc1ccc(F)cc1C(=O)Nc1ccc(C(=O)N2CCc3c[nH]nc3-c3ccccc32)c(Cl)c1 [Example 581]

IC50 [1]: 11 nM
Compound: Cc1ccc(F)cc1C(=O)Nc1ccc(C(=O)N2CCc3c[nH]nc3-c3ccccc32)cc1 [Example 584, N-[4-[(4.5-Dihydropyrazolo[4,3-d][1]benzazepin-6(2H)-yl)carbonyl]phenyl]-5-fluoro-2-methylbenzamide]
